# Source: PubChem BioAssay (NCI)
#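 Where inhibition never reached the appropriate level, the endpoint shown equals the highest concentration tested. Otherwise, values were interpolated linearly from a five-concentration, 48-hour dose response in 96-well plates. TGI: total growth inhibition.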
# Columns and labels:
# Assay in all cases: NCI-60 cell line screen, 48 h
# [1] = test system: M19-MEL melanoma
# [2] = test system: LXFL 529 NSCLC
# [3] = test system: SNB-19 CNS
# [4] = test system: TK-10 renal
# [5] = test system: SF-268 CNS
# [6] = test system: SF-295 CNS
# [7] = test system: XF 498 CNS
# [8] = test system: ACHN renal
# [9] = test system: DMS 273 small cell lung
# [10] = test system: A549 NSCLC
# [11] = test system: UACC-62 melanoma
# [12] = test system: EKVX NSCLC
# [13] = test system: 786-0 renal
# [14] = test system: HCC-2998 colon
# [15] = test system: RXF 393 renal
# [16] = test system: UO-31 renal
# [17] = test system: IGROV1 ovarian
# [18] = test system: U251 CNS
# [19] = test system: OVCAR-3 ovarian
# [20] = test system: HOP-62 NSCLC
# [21] = test system: DMS 114 small cell lung
# [22] = test system: MALME-3M melanoma
# [23] = test system: RPMI-8226 leukemia
# [24] = test system: SR leukemia
# [25] = test system: UACC-257 melanoma
# [26] = test system: SW-620 colon
# [27] = test system: HCT-116 colon
# [28] = test system: HCT-15 colon
# [29] = test system: SK-OV-3 ovarian
# [30] = test system: NCI-H460 lung
# [31] = test system: OVCAR-8 ovarian
# [32] = test system: COLO 205 colon
# [33] = test system: KM12 colon
# [34] = test system: KM20L2 colon
# [35] = test system: NCI-H522 lung
# [36] = test system: LOX IMVI melanoma
# [37] = test system: NCI-H23 lung
# [38] = test system: SK-MEL-5 melanoma
# [39] = test system: NCI-H226 lung
# [40] = test system: HT29 colon
# [41] = test system: SF-539 CNS
# [42] = test system: SN12C renal
# [43] = test system: HL-60(TB) leukemia
# [44] = test system: M14 melanoma
# [45] = test system: HOP-18 NSCLC
# [46] = test system: HOP-92 NSCLC
# [47] = test system: DLD-1 colon
# [48] = test system: OVCAR-5 ovarian
# [49] = test system: SNB-75 CNS
# [50] = test system: SNB-78 CNS
# [51] = test system: MOLT-4 leukemia
# [52] = test system: A498 renal
# [53] = test system: OVCAR-4 ovarian
# [54] = test system: CCRF-CEM leukemia
# [55] = test system: SK-MEL-28 melanoma
# [56] = test system: K-562 leukemia
smiles,measurement,setting,value
CC12N=NN(c3ccc([N+](=O)[O-])cc3)C1(O)c1ccccc1C2=O (configuration not stated),TGI,[1],> 100 µM
same,TGI,[2],> 100 µM
same,TGI,[3],> 100 µM
same,TGI,[4],> 100 µM
same,TGI,[5],> 100 µM
same,TGI,[6],> 100 µM
same,TGI,[7],> 100 µM
same,TGI,[8],> 100 µM
same,TGI,[9],> 100 µM
same,TGI,[10],> 100 µM
same,TGI,[11],> 100 µM
same,TGI,[12],> 100 µM
same,TGI,[13],> 100 µM
same,TGI,[14],> 100 µM
same,TGI,[15],> 100 µM
same,TGI,[16],> 100 µM
same,TGI,[17],> 100 µM
same,TGI,[18],> 100 µM
same,TGI,[19],> 100 µM
same,TGI,[20],> 100 µM
same,TGI,[21],> 100 µM
same,TGI,[22],> 100 µM
same,TGI,[23],> 100 µM
same,TGI,[24],> 100 µM
same,TGI,[25],> 100 µM
same,TGI,[26],> 100 µM
same,TGI,[27],> 100 µM
same,TGI,[28],> 100 µM
same,TGI,[29],> 100 µM
same,TGI,[30],> 100 µM
same,TGI,[31],> 100 µM
same,TGI,[32],> 100 µM
same,TGI,[33],> 100 µM
same,TGI,[34],> 100 µM
same,TGI,[35],> 100 µM
same,TGI,[36],> 100 µM
same,TGI,[37],> 100 µM
same,TGI,[38],> 100 µM
same,TGI,[39],> 100 µM
same,TGI,[40],> 100 µM
same,TGI,[41],> 100 µM
same,TGI,[42],> 100 µM
same,TGI,[43],> 100 µM
same,TGI,[44],> 100 µM
Cc1ccc(-c2cc(-c3ccco3)c(C#N)c(=O)[nH]2)cc1,TGI,[1],> 100 µM
same,TGI,[2],> 100 µM
same,TGI,[3],> 100 µM
same,TGI,[45],> 100 µM
same,TGI,[4],> 100 µM
same,TGI,[5],> 100 µM
same,TGI,[6],> 100 µM
same,TGI,[46],> 100 µM
same,TGI,[8],> 100 µM
same,TGI,[47],> 100 µM
same,TGI,[9],> 100 µM
same,TGI,[48],> 100 µM
same,TGI,[10],> 100 µM
same,TGI,[11],> 100 µM
same,TGI,[12],> 100 µM
same,TGI,[49],> 100 µM
same,TGI,[13],> 100 µM
same,TGI,[14],> 100 µM
same,TGI,[15],> 100 µM
same,TGI,[16],> 100 µM
same,TGI,[17],> 100 µM
same,TGI,[18],> 100 µM
same,TGI,[19],> 100 µM
same,TGI,[50],> 100 µM
same,TGI,[20],> 100 µM
same,TGI,[51],> 100 µM
same,TGI,[22],> 100 µM
same,TGI,[23],> 100 µM
same,TGI,[25],> 100 µM
same,TGI,[26],> 100 µM
same,TGI,[52],> 100 µM
same,TGI,[27],> 100 µM
same,TGI,[28],> 100 µM
same,TGI,[29],97.6 µM
same,TGI,[30],> 100 µM
same,TGI,[31],> 100 µM
same,TGI,[32],> 100 µM
same,TGI,[53],> 100 µM
same,TGI,[54],> 100 µM
same,TGI,[33],> 100 µM
same,TGI,[34],> 100 µM
same,TGI,[55],> 100 µM
same,TGI,[35],> 100 µM
same,TGI,[36],> 100 µM
same,TGI,[37],> 100 µM
same,TGI,[38],> 100 µM
same,TGI,[39],> 100 µM
same,TGI,[40],> 100 µM
same,TGI,[41],> 100 µM
same,TGI,[42],> 100 µM
same,TGI,[56],> 100 µM
same,TGI,[43],> 100 µM
same,TGI,[44],> 100 µM
